Like-named read-outs stand apart in the source and are kept apart here.

The target in assay [1] is T1, T7 DNA polymerase (28 amino acid deletion in the exonuclease domain, complexed with thioredoxin) (Escherichia phage T7, UniProt P00581, DEL118-145).
T1 construct: made in house; host or cells: strain that produces E. coli thioredoxin (lac promoter)
Description: Inhibition of DNA synthesis on synthetic Primer-Template A, competition of dATP and ddATP (Example 9). The class given is biochemical, bacteriophage T7. The settings on record: in the presence of 10 µM dATP, 37°C, read-out: [ddATP] for 50% inhibition. Here is the method:
(§1) In this example the competition between a dNTP and a ddNTP is assayed for use at a single site in a synthetic primer-template. This assay differs from the others in that it limits the comparison of the use of the two substrates to a single site, avoiding the complication of sequence-specific variability in discrimination. […]
(§2) Each reaction mixture contains 25 pmoles each of primer and template. […] The mixtures are incubated at 37°C for 1 min (70°C for thermophilic DNA polymerases), and the reactions are initiated by the addition of 5 µl aliquots (0.01 to 1 unit) of the DNA polymerase being analyzed diluted in 20 mM TrisHCl, pH 7.5, 10 mM 2-mercaptoethanol and 0.05% bovine serum albumin. […] The disks are then dried under a heat lamp and counted in a scintillation counter in 5 ml of fluor (Opti-Fluor O, Packard). From the amount of radioactivity on each disk, the amount […] incorporated was determined. […]
(§3) All reactions are carried out with a constant amount of the DNA polymerase being analyzed; the amount of DNA polymerase should be sufficient to replicate 50% of the total dCMP residues in the single-stranded region of the template in the 10 min incubation in the presence of 10 µM dATP and the absence of ddATP. […]

For a further assay, the target named is T2, T7 DNA polymerase Y526F (Escherichia phage T7, UniProt P00581, DEL118-145/Y526F).
T2 construct: made in house; host or cells: strain that produces E. coli thioredoxin (lac promoter)
The assay is described as above. It is filed as biochemical, bacteriophage T7. Particulars: in the presence of 10 µM dATP, 37°C, read-out: [ddATP] for 50% inhibition. As to the method:
as §1, §2, §3

Assay [2] has as its target T3, E. coli DNA polymerase I (Klenow fragment) (Escherichia coli, UniProt P00582).
T3 construct: manganese reduces the discrimination of Klenow fragment against ddATP from 550 to 3.9 fold
Particulars: cited from earlier work.

On to `Nc1ncnc2c1ncn2[C@H]1CC[C@@H](COP(=O)(O)OP(=O)(O)OP(=O)(O)O)O1` [ddATP], for which the IC50 was roughly 30 µM in assay [1] and greater than 500 µM on T7 DNA polymerase Y526F. Besides, the “discrimination against ddATP” value in assay [2] (in the presence of manganese) was 3.9 fold; in assay [2] (magnesium) it was 550 fold.

The record behind these values is patent EP0655506B1 (priority 1994, dated 1995).
